This note sets out measurements from ChEMBL document CHEMBL1125372, “Crystal-structure-based design and synthesis of benz[cd]indole-containing inhibitors of thymidylate synthase” (J Med Chem, 1992).

Each structure is given as a SMILES string.

For one assay, the system named is CCRF-CEM. The assay can be described thus: Inhibition of cellular growth by the MTT colorimetric assay in CCRF-CEM, human lymphoblasticof T-cell origin.
The test system of the next assay is GC3/MTK-. The experiment in a line: Inhibition of cellular growth by the MTT colorimetric assay in GC3/M TK-, a human thymidine kinase deficient adenocarcinoma line.
For a further assay, the system named is L1210. The experiment in a line: Inhibition of cellular growth by the MTT colorimetric assay in L1210, murine leukemia cell line. The conditions noted are these: Mus musculus.
Assay [1] concerns the target Thymidylate synthase (Homo sapiens) (UniProt P04818).
Description: (§1) Inhibitory activity against thymidylate synthase from human
For assay [2] the target is unchanged. The source holds these as a separate data set.
Description: as §1
The target in assay [3] is Thymidylate synthase (Escherichia coli) (UniProt C3SWJ7).
Description: Inhibitory activity against thymidylate synthase from Escherichia coli
Assay [4] has the same target. This is another data set of the same source.
Description: Compound was evaluated for its inhibitory activity against thymidylate synthase from Escherichia coli
The nature of assay [5]: Compound was evaluated for thymidylate shift expressed as the ratio of the IC50 in the presence of […] uM thymidylate divided by the IC50 with no thymidylate added.

Chain of Thymidylate synthase (Escherichia coli) (C3SWJ7 1-264): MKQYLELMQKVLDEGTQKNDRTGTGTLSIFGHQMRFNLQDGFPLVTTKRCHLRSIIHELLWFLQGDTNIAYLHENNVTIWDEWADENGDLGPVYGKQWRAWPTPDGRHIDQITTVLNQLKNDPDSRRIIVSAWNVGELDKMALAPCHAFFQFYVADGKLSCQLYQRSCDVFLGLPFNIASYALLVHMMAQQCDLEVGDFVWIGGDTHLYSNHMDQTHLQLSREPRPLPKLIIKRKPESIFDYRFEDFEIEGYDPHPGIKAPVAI
Chain of Thymidylate synthase (Homo sapiens) (P04818 2-313 limits assumed): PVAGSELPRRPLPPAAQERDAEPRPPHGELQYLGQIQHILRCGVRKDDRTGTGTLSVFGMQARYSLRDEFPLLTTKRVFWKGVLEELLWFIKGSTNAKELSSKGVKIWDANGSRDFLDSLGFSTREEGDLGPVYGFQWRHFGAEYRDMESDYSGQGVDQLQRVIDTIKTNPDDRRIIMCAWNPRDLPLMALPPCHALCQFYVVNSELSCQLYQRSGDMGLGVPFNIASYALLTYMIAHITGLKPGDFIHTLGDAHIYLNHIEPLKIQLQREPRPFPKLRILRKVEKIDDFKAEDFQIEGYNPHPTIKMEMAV

As for `CC(=O)c1cccc2c(N(C)Cc3ccc(S(=O)(=O)c4ccc(N)cc4)cc3)ccc(N)c12`, the 50% inhibitory concentration (IC50) in the assay with CCRF-CEM was 5900 nM; with GC3/MTK-, greater than 10000 nM; in the assay with L1210, 9100 nM.
On to `CN(Cc1ccc(S(=O)(=O)c2ccc(O)cc2)cc1)c1ccc2c3c(cccc13)C(N)=N2`, for which the IC50 in the assay with CCRF-CEM amounted to 2700 nM; in the assay on GC3/MTK- it was 4050 nM; with L1210, 2100 nM.
For the molecule `CSCN(Cc1ccc(S(=O)(=O)c2ccccc2)cc1)c1ccc2c3c(cccc13)C(=O)N2`, the 50% inhibitory concentration (IC50) was 2800 nM in the assay with CCRF-CEM, greater than 10000 nM with GC3/MTK- and 2100 nM in the assay on L1210.
In the case of `CNC1=Nc2ccc(N(C)Cc3ccc(S(=O)(=O)c4ccc(OC)cc4)cc3)c3c(C)ccc1c23`, the IC50 in the assay with CCRF-CEM is 890 nM; with GC3/MTK-, 1500 nM; in the assay with L1210, 720 nM.
Turning to `CNC1=Nc2ccc(N(C)Cc3ccc(S(=O)(=O)c4ccccc4)cc3)c3cccc1c23`, the half-inhibitory concentration (IC50) in the assay on CCRF-CEM amounted to 3300 nM; in the assay with GC3/MTK- it was 3400 nM; in the assay on L1210, 1600 nM.
Turning to `CSc1ccc2c3c(ccc(N(C)Cc4ccc(S(=O)(=O)N5CCOCC5)cc4)c13)N=C2N`, the IC50 worked out at 3100 nM in the assay with CCRF-CEM, 6900 nM with GC3/MTK- and 1900 nM in the assay on L1210.
In the case of `CCCN(Cc1ccc(S(=O)(=O)N2CCNCC2)cc1)c1ccc2c3c(cccc13)C(=O)N2`, the results for the IC50 with CCRF-CEM, in the assay on GC3/MTK- and in the assay with L1210 were 3100 nM, 5400 nM and 2900 nM, respectively.
Regarding `CN(Cc1ccc(S(=O)(=O)N2CCOCC2)cc1)c1ccc2c3c(cccc13)C(=N)N2`, the values for the IC50 in the assay with CCRF-CEM, in the assay with GC3/MTK- and with L1210 were 460 nM, 900 nM and 490 nM, respectively. Further, the figures for the Kii in assay [1] and in assay [3] were 0.015 µM and 5.4 µM, respectively. The results for the Kis in assay [2] and in assay [4] were 0.012 µM and 1.8 µM, respectively.
Regarding `Cc1ccc2c3c(ccc(N(C)Cc4ccc(S(=O)(=O)c5ccc(N)cc5)cc4)c13)NC2=O`, the 50% inhibitory concentration (IC50) in the assay with CCRF-CEM is 5000 nM; in the assay with GC3/MTK-, greater than 5000 nM; in the assay on L1210 it was 3300 nM.
The matching figures for `CNC1=Nc2ccc(N(C)Cc3ccc(S(=O)(=O)N4CCOCC4)cc3)c3cccc1c23`: greater than 5000 nM, greater than 5000 nM and 1800 nM.
The matching figures for `COc1ccc(S(=O)(=O)c2ccc(CN(C)c3ccc4c5c(ccc(C)c35)C(N)=N4)cc2)cc1`: 400 nM, 970 nM and 310 nM.
As for `O=C1Nc2ccc(N(CCCO)Cc3ccc(S(=O)(=O)N4CCNCC4)cc3)c3cccc1c23`, the half-inhibitory concentration (IC50) in the assay with CCRF-CEM was 15000 nM; in the assay with GC3/MTK-, 30000 nM; in the assay with L1210 it was 21500 nM.
With `Cc1ccc2c3c(ccc(N(C)Cc4ccc(S(=O)(=O)c5ccc(N)cc5)cc4)c13)N=C2N`, the IC50 in the assay on CCRF-CEM was 200 nM; with GC3/MTK- it was 270 nM; in the assay on L1210 it was 280 nM.
As to `Cc1ccc2c3c(ccc(N(C)Cc4ccc(S(=O)(=O)c5ccccc5)cc4)c13)N=C2N`, the IC50 in the assay with CCRF-CEM turned out to be 360 nM; in the assay on GC3/MTK- it was 520 nM; in the assay with L1210, 250 nM. In assay [5], the Thymidylate shift was determined as 3.85.
With `CN(Cc1ccc(S(=O)(=O)N2CCOCC2)cc1)c1ccc2c3c(ccc(Cl)c13)C(N)=N2`, the half-inhibitory concentration (IC50) was 900 nM in the assay with CCRF-CEM, 1400 nM in the assay on GC3/MTK- and 440 nM with L1210.
Take `COc1ccc(S(=O)(=O)c2ccc(CN(C)c3ccc4c5c(cccc35)C(=O)N4)cc2)cc1`: the figures for the IC50 in the assay on CCRF-CEM, in the assay with GC3/MTK- and with L1210 were 3000 nM, 10000 nM and 4600 nM, respectively.
For the molecule `COc1ccc(S(=O)(=O)c2ccc(CN(C)c3ccc4c5c(cccc35)C(N)=N4)cc2)cc1`, the figures for the IC50 with CCRF-CEM, in the assay with GC3/MTK- and with L1210 were 2100 nM, 2100 nM and 1200 nM, respectively.
On to `Cc1ccc2c3c(ccc(NCc4ccc(S(=O)(=O)c5ccccc5)cc4)c13)NC2=O`, for which the figures for the IC50 in the assay with CCRF-CEM, with GC3/MTK- and with L1210 were 2500 nM, greater than 5000 nM and 2000 nM, respectively.
In the same order, the values of `CN(Cc1ccc(S(=O)(=O)c2ccccc2)cc1)c1ccc2c3c(cccc13)C(NN)=N2` are 1300 nM, greater than 10000 nM and 2400 nM.
As for `CCN(Cc1ccc(S(=O)(=O)c2ccccc2)cc1)c1ccc2c3c(cccc13)C(N)=N2`, the half-inhibitory concentration (IC50) with CCRF-CEM was 1250 nM; in the assay on GC3/MTK- it was 3000 nM; in the assay with L1210 it was 700 nM.
Regarding `O=C1Nc2ccc(N(CCO)Cc3ccc(S(=O)(=O)N4CCNCC4)cc3)c3cccc1c23`, the half-maximal inhibitory concentration (IC50) was 31000 nM in the assay on CCRF-CEM, greater than 50000 nM in the assay with GC3/MTK- and 50000 nM in the assay on L1210.
As to `CN(Cc1ccc(S(=O)(=O)c2ccccc2)cc1)c1ccc2c3c(cccc13)C(NO)=N2`, the values for the IC50 in the assay on CCRF-CEM, in the assay with GC3/MTK- and in the assay on L1210 were 2000 nM, greater than 5000 nM and 810 nM, respectively.
Regarding `Cc1ccc2c3c(ccc(N(C)Cc4ccc(S(=O)(=O)c5ccccc5)cc4)c13)NC2=O`, the IC50 in the assay on CCRF-CEM is 4800 nM; with GC3/MTK- it was greater than 5000 nM; in the assay on L1210, 1900 nM.
As to `CC(C)N(Cc1ccc(S(=O)(=O)N2CCNCC2)cc1)c1ccc2c3c(cccc13)C(=O)N2`, the values for the half-inhibitory concentration (IC50) in the assay with CCRF-CEM, in the assay on GC3/MTK- and in the assay with L1210 were 6800 nM, 5900 nM and 3900 nM, respectively.
On to `O=C1Nc2ccc(NCc3ccc(S(=O)(=O)c4ccccc4)cc3)c3cccc1c23`, for which the concentration for half-maximal inhibition (IC50) in the assay with CCRF-CEM is greater than 4000 nM; in the assay on GC3/MTK- it was greater than 4000 nM; in the assay with L1210, 2300 nM.
Regarding `CN(Cc1ccc(S(=O)(=O)c2ccc([N+](=O)[O-])cc2)cc1)c1ccc2c3c(cccc13)C(=O)N2`, the figures for the IC50 in the assay on CCRF-CEM, with GC3/MTK- and in the assay on L1210 were 2800 nM, greater than 5000 nM and 2000 nM, respectively.
With `CSC1Nc2ccc(N(C)Cc3ccc(S(=O)(=O)c4ccc(O)cc4)cc3)c3cccc1c23` (stereo unspecified), the half-maximal inhibitory concentration (IC50) in the assay on CCRF-CEM, with GC3/MTK- and in the assay with L1210 was greater than 4000 nM throughout.
For `CN(Cc1ccc(S(=O)(=O)c2ccc(O)cc2)cc1)c1ccc2c3c(cccc13)C(=O)N2`, the IC50 with CCRF-CEM was determined as 9500 nM; in the assay on GC3/MTK-, 9500 nM; in the assay on L1210, 10000 nM.
Turning to `COc1ccc(S(=O)(=O)c2ccc(CN(C)c3ccc4c5c(ccc(C)c35)C(=O)N4)cc2)cc1`, the results for the IC50 with CCRF-CEM, with GC3/MTK- and in the assay with L1210 were 4000 nM, greater than 5000 nM and 2000 nM, respectively.
Turning to `Cc1ccc2c3c(ccc(N(C)Cc4ccc(S(=O)(=O)N5CCOCC5)cc4)c13)N=C2N`, the 50% inhibitory concentration (IC50) in the assay on CCRF-CEM was 220 nM; in the assay on GC3/MTK- it was 440 nM; in the assay with L1210 it was 220 nM.
Take `CCN(Cc1ccc(S(=O)(=O)c2ccccc2)cc1)c1ccc2c3c(cccc13)C(=O)N2`: the half-maximal inhibitory concentration (IC50) in the assay on CCRF-CEM was greater than 3330 nM; in the assay on GC3/MTK-, 3330 nM; in the assay on L1210 it was 3050 nM.
For the molecule `CN(Cc1ccc(S(=O)(=O)N2CCOCC2)cc1)c1ccc2c3c(cccc13)C(=O)N2`, the IC50 in the assay with CCRF-CEM, in the assay on GC3/MTK- and with L1210 was greater than 5000 nM throughout.
With `CNC1=Nc2ccc(N(C)Cc3ccc(S(=O)(=O)N4CCOCC4)cc3)c3c(C)ccc1c23`, the figures for the IC50 in the assay with CCRF-CEM, with GC3/MTK- and with L1210 were 610 nM, 210 nM and 180 nM, respectively. This molecule returned a Kii in assay [3] of 0.088 µM. In assay [4], this molecule had a Kis of 0.055 µM.
Regarding `CN(Cc1ccc(S(=O)(=O)N2CCOCC2)cc1)c1ccc2c3c(ccc(Cl)c13)C(=O)N2`, the IC50 in the assay with CCRF-CEM, in the assay on GC3/MTK- and in the assay with L1210 was greater than 5000 nM in each case.
Consider `Cc1ccc2c3c(ccc(N(C)Cc4ccc(S(=O)(=O)c5ccc([N+](=O)[O-])cc5)cc4)c13)N=C2N`, for which the values for the concentration for half-maximal inhibition (IC50) in the assay on CCRF-CEM, in the assay on GC3/MTK- and in the assay on L1210 were 690 nM, 910 nM and 570 nM, respectively.
As for `Cc1ccc2c3c(ccc(N(C)Cc4ccc(S(=O)(=O)N5CCOCC5)cc4)c13)NC2=O`, the IC50 was 3900 nM with CCRF-CEM, greater than 5000 nM in the assay on GC3/MTK- and 2600 nM with L1210.
Regarding `Cc1ccc2c3c(ccc(N(C)Cc4ccc(S(=O)(=O)c5ccc([N+](=O)[O-])cc5)cc4)c13)NC2=O`, the IC50 in the assay on CCRF-CEM was 2400 nM; with GC3/MTK-, greater than 5000 nM; with L1210 it was 890 nM.
On to `COc1ccc(S(=O)(=O)c2ccc(CN(C)c3ccc4c5c(ccc(C)c35)C(NO)=N4)cc2)cc1`, for which the IC50 is 5000 nM with CCRF-CEM, greater than 10000 nM with GC3/MTK- and 4100 nM in the assay with L1210.
